Laboratory results as given in patent US20100267954A1, “PROCESS FOR THE PURIFICATION OF PALIPERIDONE” (DIPHARMA FRANCIS S.r.l., priority 2009, published 2010).
Where a name gives a salt, the structure may show the parent alone.

Tests used:
[1] = solubility in water (descriptive statement); assay type: physicochemical; conditions: crystalline solid
[2] = compared with Form II, hydrate form and solvate form; per EMEA document; cited from earlier work

| solubility in water [1] | SMILES | thermodynamic stability among crystalline forms [2] |
| --- | --- | --- |
| poorly soluble in water | Cc1nc2n(c(=O)c1CCN1CCC(c3noc4cc(F)ccc34)CC1)CCCC2O (stereo not drawn) [paliperidone hydrochloride, 3-[2-[4-(6-fluoro-1,2-benzoisoxazol-3-yl)-1-piperidinyl]ethyl-6,7,8,9-tetrahydro-9-hydroxy-2-methyl-4H-pyrido[1,2-a]-pyrimidin-4-one hydrochloride] | – |
| poorly soluble in water | Cc1nc2n(c(=O)c1CCN1CCC(c3noc4cc(F)ccc34)CC1)CCCC2O (racemic) [paliperidone Form I, (±)-3-[2-[4-(6-fluoro-1,2-benzoisoxazol-3-yl)-1-piperidinyl]ethyl-6,7,8,9-tetrahydro-9-hydroxy-2-methylpropanediol-4H-pyrido[1,2-a]pyrimidin-4-one] | most thermodynamically stable |
